Assays:
SIRT3 [1] = assay: qRT-PCR of Tnf, Il6 and Cxcl2 in Mabc-R-infected PMs with 3-TYP; assay type: cell-based, mouse; settings: 3-TYP 50 μM pretreatment, Mabc-R MOI=3, 3 hours (FIG. 3C)
Procedure: (§1) BMDMs of B and PMs of C were prepared from SIRT3 WT and KO mice, and were infected with Mabc-R (MOI=3) in the presence or absence of 3-TYP (50 μM) for 3 hours. Quantitative real-time PCR analysis for Tnf, Il6, and Cxcl2 was performed. […] (Scale bar, 50 μm. *P<0.05, **P<0.01, ***P<0.001. UI, uninfected. One-way ANOVA (A to D). Data is representative of three independent experiments (D left), and values represent means (±SEM) from three or four independent experiments performed in triplicate (A to C, D right))
(§2) Primary mouse bone marrow-derived macrophages (BMDMs) were isolated and cultured as previously described. BMDMs were isolated and differentiated after culture for 4 to 5 days in medium containing 25 ng/mL macrophage colony-stimulating factor (R&D Systems, Minneapolis, MIN, USA). Peritoneal macrophages (PMs) were isolated 2 to 3 days after injection with 1 mL of PBS supplemented with 3% thioglycollate (Sigma-Aldrich, St. Louis, MO, USA). Prior to isolation, PMs in the mouse abdominal cavity were collected with pre-chilled PBS supplemented with 10% FBS. […]
(§3) RNA extraction and qPCR were performed as described in Reference. […] To analyze qPCR data, relative quantification was performed using the 2^ΔΔCt method using Gapdh as an internal control gene. Data was expressed as a relative fold change. […]

SIRT3 [2] = assay: qRT-PCR of Tnf, Il6 and Cxcl2 in Mabc-R-infected BMDMs with 3-TYP; assay type: cell-based, mouse; settings: 3-TYP 50 μM pretreatment, Mabc-R MOI=3, 3 hours (FIG. 3B)
Procedure: as §1, §2, §3

mitochondrial ROS = assay: MitoSOX Red staining of mitochondrial ROS in Mabc-R-infected BMDMs; assay type: cell-based, mouse; settings: WT BMDMs, Mabc-R MOI=5, 2 hours, 20 μM, MitoSOX Red (FIG. 5A)
Procedure: (§4) Scale bar, 50 μm. (B to E) WT mice (n=5 each group) were left uninfected or infected intranasally with Mabc-R (1×10^7 CFU), prior to treatment with or without the compound represented by Chemical Formula 1 (30 mg/kg) and monitored at 10 days post-infection. […] The ratio of damaged mitochondria among total mitochondria was calculated quantitatively (scale bars, 200 nm). […] (*P<0.05, **P<0.01, ***P<0.001, n.s., not significant. One-way ANOVA (right) or non-parametric test (B, C, D right and E)). (Data represents three independent experiments (A left and D), and values represent means (±SEM) from three or four independent experiments performed in triplicate (A right, B, C, and E))
Mitochondrial ROS were measured as described previously in Reference. […] After 20 minutes, the cells were washed and measured using an immunofluorescence assay. […] The mean fluorescence intensity (MFI) level of mitochondrial ROS was calculated for each sample. Each experiment was performed in triplicate, and at least 200 cells per well were counted.
The mitochondrial ROS scavenger MIT-001 (previously, NecroX-7) removes mitochondrial ROS, calcium, and reactive nitrogen species (References [32 and 33]). […] The present inventors next determined whether inhibition of mitochondrial ROS generation enhanced antimicrobial effects in vivo. […]

[3] = system: inflammatory cytokines/chemokines (Tnf, Il1b, Il6, Cxcl2, Cxcl5); assay: qRT-PCR analysis for cytokines/chemokines in lung tissues of Mabc-R-infected mice; assay type: in vivo, mouse; settings: WT mice, intranasal Mabc-R 1×10^7 CFU, 30 mg/kg, 10 dpi (FIG. 5C)
Procedure: as §4
(§5) RNA extraction and qPCR were performed as described in Reference. Briefly, total RNA from BMDMs or lung tissues was isolated using the TRIzol reagent (Thermo Fisher Scientific). cDNA synthesis was performed using Superscript II reverse transcriptase (Invitrogen, 18064). qPCR was performed using cDNA, primers, and SYBR Green PCR Kits (Qiagen, 204074) using a Real-time PCR Cycler Rotor-Gene Q 2plex system (Qiagen GmbH, 9001620, Hilden, Germany). The samples were amplified for 50 cycles as follows: 95° C. for 5 seconds and 60° C. for 10 seconds. To analyze qPCR data, relative quantification was performed using the 2^ΔΔCt method using Gapdh as an internal control gene. Data was expressed as a relative fold change. […]

Mabc-R = assay: Pulmonary CFU assay in mice infected intranasally with Mabc-R; assay type: in vivo, mouse; settings: WT mice, intranasal Mabc-R 1×10^7 CFU, 30 mg/kg at 1, 3, 5, 7 and 9 dpi, sacrificed at 10 dpi (FIG. 5B)
Sirt3 mRNA = assay: qRT-PCR analysis for Sirt3 mRNA expression in lungs of Mabc-R-infected mice; assay type: in vivo, mouse; settings: 30 mg/kg, 10 dpi (FIG. 5E)
Procedure: as §4, §5

[4] = system: mitochondria in alveolar cells of lung tissues; assay: TEM analysis of damaged mitochondria in lung tissues of Mabc-R-infected mice; assay type: in vivo, mouse; settings: Mabc-R-infected mice vs vehicle control mice, 30 mg/kg, 10 dpi, TEM (FIG. 5D)
Procedure: as §4
SIRT3 WT and KO mouse lung tissues were fixed with 2.5% glutaraldehyde in a 0.1 M cacodylate buffer (pH 7.2) containing 0.1% CaCl2). After 3 hours, the cells were post-fixed with 1% OsO4 in a 0.1 M sodium cacodylate buffer containing 0.1% CaCl2) for 2 hours. The tissues were rinsed with cold distilled water and slowly dehydrated using an ethanol series and propylene oxide at 4° C. The tissues were embedded in Embed-812 and cured at 60° C. for 30 hours. Ultrathin sections (70 nm) were cut with a diamond knife and an ULTRACUT UC7 ultramicrotome (Leica) and mounted on formvar-coated copper grids. Sections were stained with 4% uranyl acetate for 7 minutes and lead citrate for 7 minutes. […]

TNF = TNF secretion in lung tissues of Mabc-R-infected mice (ELISA); assay type: in vivo, mouse; settings: Mabc-R-infected mice treated with MIT-001
Procedure: The concentration of TNF in lung tissues was measured using a commercially available ELISA kit (BD Biosciences, 558534, San Jose, CA, USA). Experiments were performed according to the protocol provided by the manufacturer.
We next examined the in vivo effects of MIT-001 on pathological inflammatory responses during Mabc-R infection.

SMILES | mRNA expression of proinflammatory cytokines (Tnf, Il6, Cxcl2) after infection with Mabc-R (SIRT3 [1]; SIRT3 KO PMs) | mRNA expression of Tnf, Il6, and Cxcl2 in response to Mabc-R (SIRT3 [1]; SIRT3 WT PMs) | mRNA expression of proinflammatory cytokines (Tnf, Il6, Cxcl2) after infection with Mabc-R (SIRT3 [2]; SIRT3 KO BMDMs) | mRNA expression of Tnf, Il6, and Cxcl2 in response to Mabc-R (SIRT3 [2]; SIRT3 WT BMDMs) | generation of mitochondrial ROS in response to Mabc-R infection (mitochondrial ROS) | mRNA expression of inflammatory cytokines/chemokines including Tnf, Il1b, Il6, Cxcl2 and Cxcl5 in lung tissues [3] | in vivo bacterial loads in the lungs (pulmonary CFU) (Mabc-R) | Sirt3 mRNA levels in mouse lungs (Sirt3 mRNA) | damaged mitochondria with disrupted cristae in alveolar cells of lung tissues [4] | TNF secretion in lung tissues (TNF)
c1cncc(-c2cn[nH]n2)c1 [3-TYP] | no significant effect | significantly increased | no significant effect | significantly increased |  |  |  |  |  | 
O=S1(=O)CCN(Cc2cc(NC3CCOCC3)c3[nH]c(-c4ccccc4)cc3c2)CC1 [MIT-001, 5-[(1,1-dioxido-4-thiomorpholinyl)methyl]-2-phenyl-N-(tetrahydro-2H-pyran-4-yl)-1H-indol-7-amine] |  |  |  |  | remarkably suppressed | remarkably ameliorated | significantly inhibited | significantly recovered | considerably fewer damaged mitochondria | significantly downregulated

From US20240009202A1, “MITOCHONDRIA-TARGETED ANTIOXIDANT AS AGENT FOR TREATING PATHOLOGIC INFLAMMATION CAUSED BY MABC-R INFECTION” (MITOIMMUNE THERAPEUTICS INC., priority 2020, published 2024)
